Test results as given in US20150030566A1, “ANTIMICROBIAL PEPTIDE COMPOSITIONS FOR PLANTS” (Stellenbosch University, priority 2012, published 2015).
≈ marks a conversion by molar mass, not a printed value. Residues, ends and D or L forms follow the SMILES beside them.

What was measured:
[1] = tested on: fungal pathogens; experiment: Sterilization of field-gathered grapevine material for plant cultures; format: in vivo; conditions: in the washing step or in the growth media; without a major detrimental effect to the plant material; results not shown
Experimental: (§1) The Trc mix and GS were also tested for use in the sterilization of field-gathered grapevine material for use in plant cultures.

[2] = tested on: Phaeoacremonium aleophilum; experiment: Agar assay; format: cell-based
Experimental: (§2) Microdilution broth and agar assays were used to assess the antifungal activity of the cyclic decapeptides in liquid media and on solid (gel) media, respectively.
(§3) The antibacterial activity of the tyrocidines and gramicidin S against all the bacteria tested was determined by the methods described by Du Toit E A and Rautenbach M (2000) J. Microbiol. Methods, 42, 159-165. The antifungal activity of the tyrocidines against all the […] tested was determined by the methods described by Troskie A M, Vlok N M and Rautenbach M (2012) J. Microbiol. Methods, 91, 551-558.

[3] = tested on: Penicillium digitatum (citrus isolate); experiment: Agar assay; format: cell-based
Experimental: as §2, §3

[4] = tested on: Fusarium solani; experiment: Microdilution broth assay; format: cell-based; parameters: MIC against F. solani in PDB (n): unit not given beside the values
Experimental: as §2, §3

[5] = tested on: bacteria; experiment: Sterilization of field-gathered grapevine material, antibacterial efficacy; format: in vivo; conditions: selected cases
Experimental: as §1

[6] = tested on: Grapevine tissue culture plants; experiment: Plant culture assay, growth and development of plantlets; format: in vivo; conditions: 15 mg/L in MS medium
Experimental: as §1
Grapevine tissue culture plants were transferred to MS medium containing GS or Trc mix at a concentration of 15 μg/mL and incubated at 25° C. with a 16 h/8 h day night cycle. The growth and development of the grapevine plantlets were monitored and compared to the control set of plants which were maintained on MS-medium without GS or Trc mix.

[7] = tested on: Fusarium solani; experiment: Agar (gel) assay; format: cell-based
Experimental: as §2, §3

[8] = tested on: Aspergillus fumigatus ATCC 204305; experiment: Microdilution broth assay; format: cell-based
Experimental: as §2, §3

[9] = tested on: Penicillium glabrum (wood isolate); experiment: Microdilution broth assay; format: cell-based
Experimental: as §2, §3

[10] = tested on: Penicillium digitatum (citrus isolate); experiment: Microdilution broth assay; format: cell-based
Experimental: as §2, §3

[11] = tested on: Fusarium oxysporum; experiment: Microdilution broth assay; format: cell-based
Experimental: as §2, §3

[12] = tested on: Fusarium verticilliodes; experiment: Microdilution broth assay; format: cell-based
Experimental: as §2, §3

[13] = tested on: Penicillium expansum (peach isolate); experiment: Microdilution broth assay; format: cell-based
Experimental: as §2, §3

[14] = tested on: Micrococcus luteus NCTG 8340; experiment: Agar assay; format: cell-based; parameters: unit not given beside the values
Experimental: as §2, §3

[15] = tested on: Phomopsis viticola; experiment: Agar assay; format: cell-based; parameters: unit not given beside the values
Experimental: as §2, §3

[16] = tested on: Talaromyces ramulosus (peach isolate); experiment: Agar assay; format: cell-based; parameters: unit not given beside the values
Experimental: as §2, §3

[17] = tested on: Cylindrocarpon liriodendri; experiment: Agar assay; format: cell-based; parameters: unit not given beside the values
Experimental: as §2, §3

[18] = tested on: Escherichia coli HB101; experiment: Agar assay; format: cell-based; parameters: unit not given beside the values
Experimental: as §2, §3

[19] = tested on: Botrytis cinerea; experiment: Agar (gel) assay; format: cell-based; parameters: MIC + SEM: unit not given beside the values
Experimental: as §2, §3

## CC(C)C[C@@H]1NC(=O)[C@H](CCCN)NC(=O)[C@H](C(C)C)NC(=O)C2CCCN2C(=O)[C@@H](Cc2ccccc2)NC(=O)[C@H](CC(C)C)NC(=O)[C@H](CCCN)NC(=O)[C@H](C(C)C)NC(=O)C2CCCN2C(=O)[C@@H](Cc2ccccc2)NC1=O (some centres unmarked) [GS, Cyclo-(VOLfPVOLfP)] (HELM PEPTIDE1{L.[dF].[O=C(C1CCCN1[*:1])[*:2]].V.[Orn].L.[dF].[O=C(C1CCCN1[*:1])[*:2]].V.[Orn]}$PEPTIDE1,PEPTIDE1,1:R1-10:R2$$$V2.0)
[1]
  concentration sufficient to eliminate fungal pathogens: 20 mg/L
[2]
  MIC + SEM: <10
[3]
  MIC + SEM: <20
[4]; Broth, Fusarium solani
  MIC + SEM: 2.5 ± 0.1
[4]; potato dextrose broth (low salt PDB)
  MIC against F. solani in PDB (n): 2.2 ± 0.1
[5]
  antibacterial efficacy: good antibacterial activity
[6]
  effect on root growth: root growth was visibly affected
[6]; vs control plants
  effect on plant culture survival and growth: enhanced plant culture survival and foliage growth
[7]; Agar, Fusarium solani
  MIC + SEM: 5.5 ± 1.3
[7]; F. solani on PDA
  IC50 ± SEM: 4.9 ± 1.2 µg/mL (≈ 4.29 µM)
  MIC ± SEM: 6.3 ± 1.5 µg/mL (≈ 5.52 µM)
[7]; F. solani on YTSA
  IC50 ± SEM: 9.6 ± 0.5 µg/mL (≈ 8.41 µM)
  MIC ± SEM: 19.9 ± 1.2 µg/mL (≈ 17.4 µM)
[8]
  MIC + SEM: 8.6 ± 0.7
[9]
  MIC + SEM: 4.0 ± 0.5
[10]
  MIC + SEM: 3-4
[11]
  MIC + SEM: 2.6 ± 0.2
[12]
  MIC + SEM: 3.5 ± 0.3
[13]
  MIC + SEM: 3.7 ± 0.3
[14]
  MIC + SEM: 6
[15]
  MIC + SEM: <10
[16]
  MIC + SEM: 3.6 ± 0.3
[17]
  MIC + SEM: <10
[18]
  MIC + SEM: 40
[19]; Agar, Botrytis cinerea
  MIC + SEM: 2.5 ± 0.3
[19]; B. cinerea on PDA
  IC50 ± SEM: 2.0 ± 0.3 µg/mL
  MIC ± SEM: 2.8 ± 0.3 µg/mL
[19]; B. cinerea on YTSA
  IC50 ± SEM: 4.5 ± 1.1 µg/mL
  MIC ± SEM: 8.2 ± 1.8 µg/mL
